Assay: Accelerated stability test: HMB-FA contents per capsule
Type: physicochemical
Conditions: for HMB FA contents: 40±2° C., 75% RH±5% RH, sealed HDPE bottles, HMB-FA 75 wt %, betaine anhydrous 18 wt %, purified water 7 wt %
Procedure: Accelerated Stability Test: To assess how the quality and purity of the instantly disclosed composition would vary with time under the influence of environmental factors of temperature and humidity, accelerated stability tests were performed. Tests were carried out according to guidelines provided in Stability Testing of New Drug Substances and Products issued by ICH and Stability testing guideline of dietary supplements by NSF. NSF Stability Testing Working Group, Stability testing guideline of dietary supplements, January 2011. […] The gel capsule composition was HMB-FA 75 wt %; betaine anhydrous 18 wt % and purified water 7 wt %. Samples were repacked in HDPE bottles (size: 1 80 ct, 300 rnl) then sealed with aluminum foil. Samples were exposed to high temperature and high humidity (40±2° C.; 75% RH±5% RH) and evaluated at 1, 2, and 3 months.

CC(C)(O)CC(=O)O [HMB FA, Beta-hydroxyisovaleric acid]
HMB FA contents (0 months): 519 mg/capsule
HMB FA contents (1 month): 494.4 mg/capsule
HMB FA contents (2 months): 484.8 mg/capsule
HMB FA contents (3 months): 491.8 mg/capsule
stability of HMB FA (overall) (high heat high humidity environments, periods exceeding three months): substantially stable

— patent publication US12133920B2, “Stabilization of beta-hydroxyisovaleric acid formulations in soft gel capsules” (TSI Group Ltd., priority 2016, dated 2024)
